Where two headings read alike, the source gives them in different places.
Key:
Test in all cases: Ras-Raf disruption / FRET / MOA assay (BRAF RBD)
Format in all cases: biochemical
KRAS G12D = KRAS G12D (Homo sapiens, UniProt P01116+P62937, G12D); details: with Cyclophilin A
In short: (§1)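 TR-FRET in 25 mM HEPES pH 7.3, 100 mM NaCl, 5 mM MgCl2, 0.1% BSA, 0.002% Tween20 with 25 μM Cyclophilin A, 12.5 nM His6-Ras-GMPPNP, 50 nM GST-BRAF RBD; compound 10-point 3-fold series from 30 μM. After 3 h at 25 °C, Eu anti-His/APC anti-GST added for 1.5 h; IC50 from ratio decrease versus DMSO.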

KRAS G12S = KRAS G12S (Homo sapiens, UniProt P01116+P62937, G12S); details: with Cyclophilin A
In short: as §1

KRAS G12V = KRAS G12V (Homo sapiens, UniProt P01116+P62937, G12V); details: with Cyclophilin A
In short: as §1

KRAS G13C = KRAS G13C (Homo sapiens, UniProt P01116+P62937, G13C); details: with Cyclophilin A
In short: as §1

KRAS G13D = KRAS G13D (Homo sapiens, UniProt P01116+P62937, G13D); details: with Cyclophilin A
In short: as §1

KRAS Q61H = KRAS Q61H (Homo sapiens, UniProt P01116+P62937, Q61H)
In short: as §1

KRAS WT = KRAS WT (Homo sapiens, UniProt P01116+P62937); details: with Cyclophilin A
In short: as §1

NRAS G12C = NRAS G12C (Homo sapiens, UniProt P01111+P62937, G12C)
In short: as §1

NRAS Q61K = NRAS Q61K (Homo sapiens, UniProt P01111+P62937, Q61K)
In short: as §1

NRAS Q61R = NRAS Q61R (Homo sapiens, UniProt P01111+P62937, Q61R)
In short: as §1

NRAS WT = NRAS WT (Homo sapiens, UniProt P01111+P62937)
In short: as §1

KRAS G12C = KRAS G12C (Homo sapiens, UniProt P01116+P62937, G12C); details: with Cyclophilin A
In short: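 His6-K-Ras G12C-GMPPNP (12.5 nM), GST-BRAF RBD (50 nM) and tagless Cyclophilin A (25 μM) incubated 3 h at 25 °C with compound (10-point 3-fold series from 30 μM), pH 7.3 HEPES buffer. Anti-His Eu/anti-GST APC added for 1.5 h; decreased TR-FRET ratio vs DMSO gives IC50.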

[1] = Ras-Raf disruption, read-out: KRAS G12D FRET data IC50
[2] = Ras-Raf disruption, read-out: KRAS G12S FRET data IC50
[3] = Ras-Raf disruption, read-out: KRAS G12V FRET data IC50
[4] = Ras-Raf disruption, read-out: KRAS G13C FRET data IC50
[5] = Ras-Raf disruption, read-out: KRAS G13D FRET data IC50
[6] = KRAS Q61H, read-out: KRAS Q61H FRET data IC50
[7] = Ras-Raf disruption, read-out: KRAS WT FRET data IC50
[8] = NRAS G12C, read-out: NRAS G12C FRET data IC50
[9] = NRAS Q61K, read-out: NRAS Q61K FRET data IC50
[10] = NRAS Q61R, read-out: NRAS Q61R FRET data IC50
[11] = NRAS WT, read-out: NRAS WT FRET data IC50
[12] = Ras-Raf disruption, read-out: KRAS G12C FRET data IC50
[13] = KRAS G12D FRET data IC50, Ras-Raf disruption
[14] = KRAS G12S FRET data IC50, Ras-Raf disruption
[15] = KRAS G12V FRET data IC50, Ras-Raf disruption
[16] = KRAS G13C FRET data IC50, Ras-Raf disruption
[17] = KRAS G13D FRET data IC50, Ras-Raf disruption
[18] = KRAS WT FRET data IC50, Ras-Raf disruption
[19] = NRAS G12C FRET data IC50, NRAS G12C
[20] = KRAS G12C FRET data IC50, Ras-Raf disruption

Chain of KRAS G13C (P01116 1-169 isoform P01116-2 G13C limits assumed): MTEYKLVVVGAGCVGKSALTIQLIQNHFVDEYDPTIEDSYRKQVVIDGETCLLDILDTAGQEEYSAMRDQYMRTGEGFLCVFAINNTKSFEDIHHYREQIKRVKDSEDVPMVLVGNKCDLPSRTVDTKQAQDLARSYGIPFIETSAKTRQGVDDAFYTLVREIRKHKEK
Chain of KRAS G13C (P62937 whole entry): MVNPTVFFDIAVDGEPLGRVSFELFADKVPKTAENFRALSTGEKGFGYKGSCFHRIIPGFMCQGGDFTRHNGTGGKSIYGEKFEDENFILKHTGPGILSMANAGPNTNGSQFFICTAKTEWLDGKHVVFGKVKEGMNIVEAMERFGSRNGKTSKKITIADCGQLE
Chain of NRAS G12C (P01111 whole entry G12C): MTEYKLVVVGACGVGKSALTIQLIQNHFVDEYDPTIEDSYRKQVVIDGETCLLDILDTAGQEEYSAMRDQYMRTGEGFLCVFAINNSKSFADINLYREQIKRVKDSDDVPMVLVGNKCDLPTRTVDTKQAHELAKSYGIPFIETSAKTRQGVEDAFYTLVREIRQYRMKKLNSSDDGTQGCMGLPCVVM
Chain of NRAS G12C (P62937 whole entry): as the sequence (P62937 whole entry) above
Chain of NRAS Q61R (P01111 whole entry Q61R): as the sequence (P01111 whole entry G12C) above, with C12G, Q61R counted along it
Chain of NRAS Q61R (P62937 whole entry): as the sequence (P62937 whole entry) above
Chain of NRAS Q61K (P01111 whole entry Q61K): as the sequence (P01111 whole entry G12C) above, with C12G, Q61K counted along it
Chain of NRAS Q61K (P62937 whole entry): as the sequence (P62937 whole entry) above
Chain of NRAS WT (P01111 whole entry): as the sequence (P01111 whole entry G12C) above, with C12G counted along it
Chain of NRAS WT (P62937 whole entry): as the sequence (P62937 whole entry) above
Chain of KRAS G12S (P01116 1-169 isoform P01116-2 G12S limits assumed): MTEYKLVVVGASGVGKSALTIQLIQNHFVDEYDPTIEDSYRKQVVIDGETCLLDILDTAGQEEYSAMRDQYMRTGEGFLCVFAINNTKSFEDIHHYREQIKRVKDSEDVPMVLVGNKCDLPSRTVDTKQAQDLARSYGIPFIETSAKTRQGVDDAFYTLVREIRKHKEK
Chain of KRAS G12S (P62937 whole entry): as the sequence (P62937 whole entry) above
Chain of KRAS G13D (P01116 1-169 isoform P01116-2 G13D limits assumed): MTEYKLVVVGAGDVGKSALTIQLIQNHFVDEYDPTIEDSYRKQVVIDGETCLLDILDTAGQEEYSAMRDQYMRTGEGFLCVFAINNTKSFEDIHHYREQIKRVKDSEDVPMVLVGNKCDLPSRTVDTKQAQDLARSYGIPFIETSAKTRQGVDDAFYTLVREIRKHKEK
Chain of KRAS G13D (P62937 whole entry): as the sequence (P62937 whole entry) above
Chain of KRAS WT (P01116 1-169 isoform P01116-2 limits assumed): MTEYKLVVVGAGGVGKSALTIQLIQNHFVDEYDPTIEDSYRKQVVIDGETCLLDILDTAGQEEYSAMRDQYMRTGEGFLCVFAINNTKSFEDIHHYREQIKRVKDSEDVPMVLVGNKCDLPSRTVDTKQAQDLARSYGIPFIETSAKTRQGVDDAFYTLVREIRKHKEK
Chain of KRAS WT (P62937 whole entry): as the sequence (P62937 whole entry) above
Chain of KRAS G12D (P01116 1-169 isoform P01116-2 G12D limits assumed): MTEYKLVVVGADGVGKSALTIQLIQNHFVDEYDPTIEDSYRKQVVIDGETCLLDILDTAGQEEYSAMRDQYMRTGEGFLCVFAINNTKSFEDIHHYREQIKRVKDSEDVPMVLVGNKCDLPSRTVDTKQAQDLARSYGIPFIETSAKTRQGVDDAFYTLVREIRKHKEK
Chain of KRAS G12D (P62937 whole entry): as the sequence (P62937 whole entry) above
Chain of KRAS G12C (P01116 1-169 isoform P01116-2 G12C limits assumed): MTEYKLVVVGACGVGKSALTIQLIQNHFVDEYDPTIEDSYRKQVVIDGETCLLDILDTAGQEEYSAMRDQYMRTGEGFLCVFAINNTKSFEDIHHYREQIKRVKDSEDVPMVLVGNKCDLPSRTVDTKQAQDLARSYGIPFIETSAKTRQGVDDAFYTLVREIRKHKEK
Chain of KRAS G12C (P62937 whole entry): as the sequence (P62937 whole entry) above
Chain of KRAS Q61H (P01116 1-169 isoform P01116-2 Q61H limits assumed): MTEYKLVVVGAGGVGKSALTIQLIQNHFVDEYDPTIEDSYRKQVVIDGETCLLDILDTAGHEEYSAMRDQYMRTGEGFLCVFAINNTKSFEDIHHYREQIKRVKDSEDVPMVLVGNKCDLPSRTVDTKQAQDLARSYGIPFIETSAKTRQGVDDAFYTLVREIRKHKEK
Chain of KRAS Q61H (P62937 whole entry): as the sequence (P62937 whole entry) above
Chain of KRAS G12V (P01116 1-169 isoform P01116-2 G12V limits assumed): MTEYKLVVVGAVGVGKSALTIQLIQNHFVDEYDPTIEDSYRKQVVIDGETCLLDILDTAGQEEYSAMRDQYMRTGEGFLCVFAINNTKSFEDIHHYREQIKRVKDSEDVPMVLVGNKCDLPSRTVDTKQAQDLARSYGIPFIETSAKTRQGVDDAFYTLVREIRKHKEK
Chain of KRAS G12V (P62937 whole entry): as the sequence (P62937 whole entry) above

Row | SMILES | IC50 (KRAS G12D; [1]) | IC50 (KRAS G12S; [2]) | IC50 (KRAS G12V; [3]) | IC50 (KRAS G13C; [4]) | IC50 (KRAS G13D; [5]) | IC50 (KRAS Q61H; [6]) | IC50 (KRAS WT; [7]) | IC50 (NRAS G12C; [8]) | IC50 (NRAS Q61K; [9]) | IC50 (NRAS Q61R; [10]) | IC50 (NRAS WT; [11]) | IC50 (KRAS G12C; [12]) | further results
1 | CCn1c(-c2cccnc2[C@H](C)OC)c2c3cc(ccc31)-c1cc(O)cc(c1)C[C@H](NC(=O)[C@H](C(C)C)N(C)C(=O)N1CC[C@H](N(C)C(=O)[C@H]3CN3)C1)C(=O)N1CCC[C@H](N1)C(=O)OCC(C)(C)C2 (atropisomer, axis not shown) [Example 254] | 100 to 1000 nM | 100 to 1000 nM | 100 to 1000 nM | 10 to 100 nM | 100 to 1000 nM | 10 to 100 nM | 100 to 1000 nM | 10 to 100 nM | 100 to 1000 nM | 100 to 1000 nM | 100 to 1000 nM | 10 to 100 nM | 
2 | CCn1c(-c2cccnc2[C@H](C)OC)c2c3cc(ccc31)-c1cc(O)cc(c1)C[C@H](NC(=O)[C@H](C(C)C)N1CC[C@]3(CCN(C(=O)[C@@H]4N[C@@H]4C4CC4)C3)C1=O)C(=O)N1CCC[C@H](N1)C(=O)OCC(C)(C)C2 [Example 305] | < 10 nM | 10 to 100 nM | 10 to 100 nM | 10 to 100 nM | 100 to 1000 nM | 10 to 100 nM | 10 to 100 nM | 10 to 100 nM | 100 to 1000 nM | 100 to 1000 nM | 10 to 100 nM | 10 to 100 nM | 
3 | CCn1c(-c2cccnc2[C@H](C)OC)c2c3cc(ccc31)-c1cc(O)cc(c1)C[C@H](NC(=O)[C@H](C(C)C)N(C)C(=O)C1CCN(S(=O)(=O)[C@H]3CN3C)CC1)C(=O)N1CCC[C@H](N1)C(=O)OCC(C)(C)C2 (single isomer, unassigned) [Example 108] | 1000 to 10000 nM | 100 to 1000 nM | 100 to 1000 nM | 10 to 100 nM | 100 to 1000 nM | 10 to 100 nM | 100 to 1000 nM | 100 to 1000 nM | 100 to 1000 nM | 100 to 1000 nM | 100 to 1000 nM | 100 to 1000 nM | 
4 | CCn1c(-c2cccnc2[C@H](C)OC)c2c3cc(ccc31)-c1cc(O)cc(c1)C[C@H](NC(=O)[C@H](C(C)C)N(C)C(=O)N(C)CCN(C)C(=O)[C@H]1CN1)C(=O)N1CCC[C@H](N1)C(=O)OCC(C)(C)C2 (atropisomer, axis not shown) [Example 204] | 100 to 1000 nM | 10 to 100 nM | 10 to 100 nM | 10 to 100 nM | 10 to 100 nM | 10 to 100 nM | 10 to 100 nM | < 10 nM | 100 to 1000 nM | 100 to 1000 nM | 10 to 100 nM | < 10 nM | 
5 | CCn1c(-c2cc(N3CCN(C)CC3)cnc2[C@H](C)OC)c2c3cc(ccc31)-c1cc(O)cc(c1)C[C@H](NC(=O)[C@H](C1CCCC1)N(C)C(=O)CN(C)C(=O)[C@@H]1N[C@@H]1C1CC1)C(=O)N1CCC[C@H](N1)C(=O)OCC(C)(C)C2 [Example 325] |  |  |  |  |  |  |  |  |  |  |  |  | IC50 (KRAS G12D; [13]): < 10 nM; IC50 (KRAS G12S; [14]): < 10 nM; IC50 (KRAS G12V; [15]): < 10 nM; IC50 (KRAS G13C; [16]): < 10 nM; IC50 (KRAS G13D; [17]): 10 to 100 nM; IC50 (KRAS Q61H): < 10 nM; IC50 (KRAS WT; [18]): < 10 nM; IC50 (NRAS G12C; [19]): < 10 nM; IC50 (NRAS Q61K): 10 to 100 nM; IC50 (NRAS Q61R): 10 to 100 nM; IC50 (NRAS WT): < 10 nM; IC50 (KRAS G12C; [20]): < 10 nM
6 | CCn1c(-c2cccnc2[C@H](C)OC)c2c3cc(ccc31)-c1cc(O)cc(c1)C[C@H](NC(=O)[C@H](C(C)C)N(C)C(=O)[C@@H]1CCCN(C(=O)[C@@H]3CN3)C1)C(=O)N1CCC[C@H](N1)C(=O)OCC(C)(C)C2 [Example 238] | 100 to 1000 nM | 10 to 100 nM | 100 to 1000 nM | 10 to 100 nM | 100 to 1000 nM | 10 to 100 nM | 10 to 100 nM | 10 to 100 nM | 100 to 1000 nM | 100 to 1000 nM | 10 to 100 nM | 10 to 100 nM | 
7 | CCn1c(-c2cccnc2[C@H](C)OC)c2c3cc(ccc31)-c1csc(n1)C[C@H](NC(=O)[C@H](C(C)C)N(C)C(=O)N1CC[C@H](N(C)C(=O)[C@@H]3CN3)C1)C(=O)N1CCC[C@H](N1)C(=O)OCC(C)(C)C2 (atropisomer, axis not shown) [Example 229] | 1000 to 10000 nM | 100 to 1000 nM | 100 to 1000 nM | 100 to 1000 nM | 100 to 1000 nM | 10 to 100 nM | 100 to 1000 nM | 100 to 1000 nM | 10 to 100 nM | 100 to 1000 nM | 100 to 1000 nM | 100 to 1000 nM | 
8 | CCn1c(-c2cccnc2[C@H](C)OC)c2c3cc(ccc31)-c1cc(O)cc(c1)C[C@H](NC(=O)[C@H](C1CCCC1)N(C)C(=O)CN(C)C(=O)[C@@H]1N[C@@H]1C1CC1)C(=O)N1CCC[C@H](N1)C(=O)OCC(C)(C)C2 [Example 170] |  |  |  |  |  |  |  |  |  |  |  |  | IC50 (KRAS G12D; [13]): 10 to 100 nM; IC50 (KRAS G12S; [14]): 10 to 100 nM; IC50 (KRAS G12V; [15]): 10 to 100 nM; IC50 (KRAS G13C; [16]): 10 to 100 nM; IC50 (KRAS G13D; [17]): 10 to 100 nM; IC50 (KRAS Q61H): 10 to 100 nM; IC50 (KRAS WT; [18]): 10 to 100 nM; IC50 (NRAS G12C; [19]): 10 to 100 nM; IC50 (NRAS Q61K): 10 to 100 nM; IC50 (NRAS Q61R): 10 to 100 nM; IC50 (NRAS WT): 10 to 100 nM; IC50 (KRAS G12C; [20]): 10 to 100 nM
9 | CCn1c(-c2cccnc2[C@H](C)OC)c2c3cc(ccc31)-c1cc(O)cc(c1)C[C@H](NC(=O)[C@H](C(C)C)N(C)C(=O)[C@H]1CCCCN(C(=O)[C@H]3CN3)C1)C(=O)N1CCC[C@H](N1)C(=O)OCC(C)(C)C2 (atropisomer, axis not shown) [Example 247] | 1000 to 10000 nM | 100 to 1000 nM | 100 to 1000 nM | 100 to 1000 nM | 100 to 1000 nM | 100 to 1000 nM | 100 to 1000 nM | 10 to 100 nM | 1000 to 10000 nM | 1000 to 10000 nM | 100 to 1000 nM | 10 to 100 nM | 
10 | CCn1c(-c2cccnc2[C@H](C)OC)c2c3cc(ccc31)-c1csc(n1)C[C@H](NC(=O)[C@H](C(C)C)N(C)C(=O)N1CC(CN(C)C(=O)[C@H]3CN3)C1)C(=O)N1CCC[C@H](N1)C(=O)OCC(C)(C)C2 (atropisomer, axis not shown) [Example 224] | 100 to 1000 nM | 100 to 1000 nM | 100 to 1000 nM | 100 to 1000 nM | 100 to 1000 nM | 10 to 100 nM | 100 to 1000 nM | 10 to 100 nM | 10 to 100 nM | 10 to 100 nM | 10 to 100 nM | 10 to 100 nM | 
11 | CCn1c(-c2cccnc2[C@H](C)OC)c2c3cc(ccc31)-c1cc(O)cc(c1)C[C@H](NC(=O)[C@H](C(C)C)N(C)C(=O)[C@H]1CCCN(C(=O)[C@H]3CN3)C1)C(=O)N1CCC[C@H](N1)C(=O)OCC(C)(C)C2 [Example 165] | 100 to 1000 nM | 100 to 1000 nM | 10 to 100 nM | 100 to 1000 nM | 100 to 1000 nM | 100 to 1000 nM | 100 to 1000 nM | < 10 nM | 1000 to 10000 nM | 1000 to 10000 nM | 100 to 1000 nM | < 10 nM | 
12 | CCn1c(-c2cccnc2[C@H](C)OC)c2c3cc(ccc31)-c1csc(n1)C[C@H](NC(=O)[C@H](C(C)C)N(C)C(=O)N(C)CC1CN(C(=O)[C@H]3CN3)C1)C(=O)N1CCC[C@H](N1)C(=O)OCC(C)(C)C2 (atropisomer, axis not shown) [Example 293] | 100 to 1000 nM | 100 to 1000 nM | 100 to 1000 nM | 100 to 1000 nM | 100 to 1000 nM | 10 to 100 nM | 100 to 1000 nM | 10 to 100 nM | 10 to 100 nM | 100 to 1000 nM | 100 to 1000 nM | 10 to 100 nM | 
